Data from US10604526B2, “Chemokine receptor modulators and uses thereof” (RAPT THERAPEUTICS, INC., priority 2016, dated 2020).

Molecular target: T1, hCCR4 (Homo sapiens, UniProt P51679)
T1 sequence (P51679 1-360): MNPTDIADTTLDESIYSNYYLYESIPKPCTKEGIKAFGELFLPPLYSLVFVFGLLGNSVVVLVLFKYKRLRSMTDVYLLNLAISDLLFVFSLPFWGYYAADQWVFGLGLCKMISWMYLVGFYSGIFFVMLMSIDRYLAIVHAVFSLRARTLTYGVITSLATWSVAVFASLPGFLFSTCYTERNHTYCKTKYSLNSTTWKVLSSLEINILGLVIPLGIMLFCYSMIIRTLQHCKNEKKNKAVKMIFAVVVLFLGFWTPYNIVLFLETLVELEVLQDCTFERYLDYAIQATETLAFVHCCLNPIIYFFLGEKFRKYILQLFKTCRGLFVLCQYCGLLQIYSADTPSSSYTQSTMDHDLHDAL
Assay: Calcium flux assay
Type: cell-based
Conditions: Chem5-hCCR4 cells, CCL22 at EC80 of 1.5 nM, FLIPR Calcium 6 dye; read-out: Potency (IC50)
Method: Calcium Flux Assay. Compounds were evaluated in a calcium flux assay substantially performed as follows. Chem5-hCCR4 cells (EMD Millipore, Hayward, Calif.; HTS009C) were cultured under standard conditions and frozen in aliquots of 10×10^6 cells/mL. The day prior to compound testing, a vial was rapidly thawed and pipetted into 20 mL media (DMEM+10% FBS+1% Pen-Strep+1% L-glutamine). Cells were harvested by centrifugation and re-suspended in fresh culture medium. 25 μL of cell suspension was seeded into 384-well plates (Corning, Tewksbury, Mass.; CellBind with black wall/clear bottom). The plates were centrifuged at 300 g for 10 seconds and incubated overnight at 37° C. and 5% CO2. The day of compound testing, media was removed from the plates and 25 μL serum free media was added to each well. Plates were returned to the incubator for 2 h. 25 μL assay buffer (Hank's balanced salt solution+20 mM HEPES pH 7.4) containing FLIPR Calcium 6 dye (Molecular Devices, Sunnyvale, Calif.; # R8191) and probenecid (2.5 mM) was added to each well and incubated at 37° C. and 5% CO2 for 2 h. Compounds in DMSO were added to the plates using an HP D300e digital dispenser, and all wells were normalized to contain 0.25 μL (0.5%) DMSO. Plates were incubated for 1 hour at 37° C. and 5% CO2. CCL22 (Peprotech; Rockyhill, N.J.) was diluted in assay buffer containing 0.1% BSA to 7.5 nM (corresponding to 5×EC80 of 1.5 nM).
Assay plates and working solution of CCL22 were transferred to the FlexStation plate reader (Molecular Devices) at 37° C. for 5 min of equilibration. Fluorescence recordings at 485 excitation/525 emission were performed at 2.5 second intervals. At t=16 seconds, 12.5 μL of CCL22 solution was added to each well and reads continued for 30 seconds at 2.5 second intervals. The minimum fluorescence (Fmin) was calculated by averaging the reads prior to ligand addition and the change in fluorescence (ΔF) was calculated by subtracting the Fmin from the average of the reads following ligand addition. The response ΔF/Fmin was plotted as a function of the compound concentration and the IC50 values were determined by non-linear regression analysis using a 4-parameter fit in either PRISM software (GraphPad; La Jolla, Calif.) or Dotmatics Browser.

Row | IC50 [nM] | SMILES
1 | 100 to 500 | CC(=O)NCCN1CCCC(C2CN(c3cnc4c(C(F)(F)F)nn([C@H](C)c5ccc(Cl)cc5Cl)c4n3)C2)C1 (mixture of isomers) [Example 45, N-(2-((R)-3-(1-(1-((R)-1-(2,4-Dichlorophenyl)ethyl)-3-(trifluoromethyl)-1H-pyrazolo[3,4-b]pyrazin-6-yl)azetidin-3-yl)piperidin-1-yl)ethyl)acetamide and N-(2-((S)-3-(1-(1-((R)-1-(2,4-dichlorophenyl)ethyl)-3-(trifluoromethyl)-1H-pyrazolo[3,4-b]pyrazin-6-yl)azetidin-3-yl)piperidin-1-yl)ethyl)acetamide]
2 | 100 to 500 | C[C@H](c1ccc(Cl)cc1Cl)n1nc(C(F)(F)F)c2ncc(N3CC(C4CCCN(CCNS(C)(=O)=O)C4)C3)nc21 (mixture of isomers) [Example 46, N-(2-((R)-3-(1-(1-((R)-1-(2,4-Dichlorophenyl)ethyl)-3-(trifluoromethyl)-1H-pyrazolo[3,4-b]pyrazin-6-yl)azetidin-3-yl)piperidin-1-yl)ethyl)methanesulfonamide and N-(2-((S)-3-(1-(1-((R)-1-(2,4-dichlorophenyl)ethyl)-3-(trifluoromethyl)-1H-pyrazolo[3,4-b]pyrazin-6-yl)azetidin-3-yl)piperidin-1-yl)ethyl)methanesulfonamide]
3 | < 100 | CC(C)S(=O)(=O)NCCN1CCCC(C2CN(c3cnc4c(C(F)(F)F)nn([C@H](C)c5ccc(Cl)cc5Cl)c4n3)C2)C1 (mixture of isomers) [Example 47, N-(2-((R)-3-(1-(1-((R)-1-(2,4-Dichlorophenyl)ethyl)-3-(trifluoromethyl)-1H-pyrazolo[3,4-b]pyrazin-6-yl)azetidin-3-yl)piperidin-1-yl)ethyl)propane-2-sulfonamide and N-(2-((S)-3-(1-(1-((R)-1-(2,4-dichlorophenyl)ethyl)-3-(trifluoromethyl)-1H-pyrazolo[3,4-b]pyrazin-6-yl)azetidin-3-yl)piperidin-1-yl)ethyl)propane-2-sulfonamide]
4 | < 100 | CC(C)C(=O)NCCN1CCCC(C2CN(c3cnc4c(C(F)(F)F)nn([C@H](C)c5ccc(Cl)cc5Cl)c4n3)C2)C1 (mixture of isomers) [Example 48, N-(2-((R)-3-(1-(1-((R)-1-(2,4-Dichlorophenyl)ethyl)-3-(trifluoromethyl)-1H-pyrazolo[3,4-b]pyrazin-6-yl)azetidin-3-yl)piperidin-1-yl)ethyl)isobutyramide and N-(2-((S)-3-(1-(1-((R)-1-(2,4-dichlorophenyl)ethyl)-3-(trifluoromethyl)-1H-pyrazolo[3,4-b]pyrazin-6-yl)azetidin-3-yl)piperidin-1-yl)ethyl)isobutyramide]
5 | < 100 | COC(=O)NCCN1CCCC(C2CN(c3cnc4c(C(F)(F)F)nn([C@H](C)c5ccc(Cl)cc5Cl)c4n3)C2)C1 (mixture of isomers) [Example 49, Methyl (2-((R)-3-(1-(1-((R)-1-(2,4-dichlorophenyl)ethyl)-3-(trifluoromethyl)-1H-pyrazolo[3,4-b]pyrazin-6-yl)azetidin-3-yl)piperidin-1-yl)ethyl)carbamate and methyl (2-((S)-3-(1-(1-((R)-1-(2,4-dichlorophenyl)ethyl)-3-(trifluoromethyl)-1H-pyrazolo[3,4-b]pyrazin-6-yl)azetidin-3-yl)piperidin-1-yl)ethyl)carbamate]
6 | < 100 | C[C@H](c1ccc(Cl)cc1Cl)n1nc(C(F)(F)F)c2ncc(N3CC(C4CCCN(CCCS(C)(=O)=O)C4)C3)nc21 (mixture of isomers) [Example 50, 1-((R)-1-(2,4-Dichlorophenyl)ethyl)-6-(3-((R)-1-(3-(methylsulfonyl)propyl)piperidin-3-yl)azetidin-1-yl)-3-(trifluoromethyl)-1H-pyrazolo[3,4-b]pyrazine and 1-((R)-1-(2,4-dichlorophenyl)ethyl)-6-(3-((S)-1-(3-(methylsulfonyl)propyl)piperidin-3-yl)azetidin-1-yl)-3-(trifluoromethyl)-1H-pyrazolo[3,4-b]pyrazine]
7 | < 100 | C[C@H](c1ccc(Cl)cc1Cl)n1nc(C#N)c2ncc(N3CC(C4CCCN(CCCC(C)(C)O)C4)C3)nc21 (mixture of isomers) [Example 56, 1-((R)-1-(2,4-dichlorophenyl)ethyl)-6-(3-((S)-1-(4-hydroxy-4-methylpentyl)piperidin-3-yl)azetidin-1-yl)-1H-pyrazolo[3,4-b]pyrazine-3-carbonitrile and 1-((R)-1-(2,4-dichlorophenyl)ethyl)-6-(3-((R)-1-(4-hydroxy-4-methylpentyl)piperidin-3-yl)azetidin-1-yl)-1H-pyrazolo[3,4-b]pyrazine-3-carbonitrile]
8 | < 100 | CNS(=O)(=O)CCN1CCCC(C2CN(c3cnc4c(C#N)nn([C@H](C)c5ccc(Cl)cc5Cl)c4n3)C2)C1 (mixture of isomers) [Example 57, 2-(S)-3-(1-(3-cyano-1-((R)-1-(2,4-dichlorophenyl)ethyl)-1H-pyrazolo[3,4-b]pyrazin-6-yl)azetidin-3-yl)piperidin-1-yl)-N-methylethane-1-sulfonamide and 2-((R)-3-(1-(3-cyano-1-((R)-1-(2,4-dichlorophenyl)ethyl)-1H-pyrazolo[3,4-b]pyrazin-6-yl)azetidin-3-yl)piperidin-1-yl)-N-methylethane-1-sulfonamide]
9 | 100 to 500 | C[C@H](c1ccc(Cl)cc1Cl)n1nc(C#N)c2ncc(N3CC(C4CCCN(CCS(=O)(=O)N5CCOCC5)C4)C3)nc21 (mixture of isomers) [Example 58, 1-((R)-1-(2,4-dichlorophenyl)ethyl)-6-(3-((S)-1-(2-(morpholinosulfonyl)ethyl)piperidin-3-yl)azetidin-1-yl)-1H-pyrazolo[3,4-b]pyrazine-3-carbonitrile and 1-((R)-1-(2,4-dichlorophenyl)ethyl)-6-(3-((R)-1-(2-(morpholinosulfonyl)ethyl)piperidin-3-yl)azetidin-1-yl)-1H-pyrazolo[3,4-b]pyrazine-3-carbonitrile]
10 | < 100 | C[C@H](c1ccc(Cl)cc1Cl)n1nc(C#N)c2ncc(N3CC(C4CCCN(Cc5cc[nH]n5)C4)C3)nc21 (mixture of isomers) [Example 59, 6-(3-((S)-1-((1H-pyrazol-3-yl)methyl)piperidin-3-yl)azetidin-1-yl)-1-((R)-1-(2,4-dichlorophenyl)ethyl)-1H-pyrazolo[3,4-b]pyrazine-3-carbonitrile and 6-(3-((R)-1-((1H-pyrazol-3-yl)methyl)piperidin-3-yl)azetidin-1-yl)-1-((R)-1-(2,4-dichlorophenyl)ethyl)-1H-pyrazolo[3,4-b]pyrazine-3-carbonitrile]
11 | < 100 | C[C@H](c1ccc(Cl)cc1Cl)n1nc(C#N)c2ncc(N3CC(C4CCCN(Cc5c[nH]cn5)C4)C3)nc21 (mixture of isomers) [Example 60, 6-(3-((S)-1-(1H-imidazol-4-yl)methyl)piperidin-3-yl)azetidin-1-yl)-1-((R)-1-(2,4-dichlorophenyl)ethyl)-1H-pyrazolo[3,4-b]pyrazine-3-carbonitrile and 6-(3-((R)-1-((1H-imidazol-4-yl)methyl)piperidin-3-yl)azetidin-1-yl)-1-((R)-1-(2,4-dichlorophenyl)ethyl)-1H-pyrazolo[3,4-b]pyrazine-3-carbonitrile]
12 | < 100 | C[C@H](c1ccc(Cl)cc1Cl)n1nc(C#N)c2ncc(N3CC(C4CCCN(C5CCS(=O)(=O)CC5)C4)C3)nc21 (mixture of isomers) [Example 61, 1-((R)-1-(2,4-dichlorophenyl)ethyl)-6-(3-((R)-1-(1,1-dioxidotetrahydro-2H-thiopyran-4-yl)piperidin-3-yl)azetidin-1-yl)-1H-pyrazolo[3,4-b]pyrazine-3-carbonitrile and 1-((R)-1-(2,4-dichlorophenyl)ethyl)-6-(3-((S)-1-(1,1-dioxidotetrahydro-2H-thiopyran-4-yl)piperidin-3-yl)azetidin-1-yl)-1H-pyrazolo[3,4-b]pyrazine-3-carbonitrile]
